{"source": "paper PMC11847841", "about": "“The development and evaluation of a tublysine-based antibody-drug conjugate with enhanced tumor therapeutic efficacy” (Frontiers in Pharmacology, 2025)", "key": {"[1]": {"settings": "cited from earlier work; for Cmax of free payload: ref Poon et al., 2013"}, "[2]": {"tested_on": "HER2-negative cell line MDA-MB-468", "assay": "In vitro inhibition of proliferation of HER2-negative cells (EZMTT)", "type": "cell-based, human", "settings": "at high concentrations"}, "[3]": {"tested_on": "HER2-positive BT-474 cells", "assay": "In vitro endocytosis into BT-474 cells", "type": "cell-based, human", "method": "(§1) BT-474 and SK-BR-3 cells were cultured to the exponential growth phase, harvested, and washed with pre-cooled PBS. […] Alexa Fluor 488-conjugated goat anti-human IgG (H + L) secondary antibody (10 μg/mL; Invitrogen, Shanghai, China) was subsequently added, and the cells were incubated on ice for 30 min. After additional washes, the cells were resuspended in pre-cooled PBS, divided into five aliquots, and incubated at 37°C for 0, 10, 30, 90, or 120 min. At each time point, cells were further split into two sub-aliquots: one treated with Trypan Blue to quench extracellular fluorescence and the other with PBS as an unquenched control. Fluorescence intensity was measured using a flow cytometer (Guava, Merck Millipore). The percentage of endocytosis was calculated as the ratio of quenched to unquenched fluorescence multiplied by 100%."}, "[4]": {"tested_on": "HER2-positive SK-BR-3 cells", "assay": "In vitro endocytosis into SK-BR-3 cells", "type": "cell-based, human", "method": "as §1"}, "tumor cells": {"tested_on": "tumor cells", "assay": "In vitro cytotoxicity of Tub114 and Tub114-cys", "type": "cell-based", "settings": "at the same concentration as the corresponding ADC; Supplementary Figure S2", "method": "EC50 values were calculated using the built-in software."}, "[5]": {"tested_on": "BT-474 human breast cancer xenografts", "assay": "BT-474 xenograft efficacy study", "type": "in vivo, BALB/c nude mice", "settings": "BT-474 model, administered alone"}, "[6]": {"assay": "Single-dose pharmacokinetic study in cynomolgus monkey"}, "[7]": {"settings": "exceeds total body water content in rats; ref Pharmaceuticals and Medical Devices Agency, 2013; cited from earlier work"}, "[8]": {"settings": "Tub114-cys alone 1 mg/kg single administration"}, "[9]": {"settings": "free Tub114-cys in plasma after DX126-262 3 mg/kg single i.v."}, "[10]": {"settings": "free Tub114-cys in plasma after DX126-262 10 mg/kg single i.v."}, "[11]": {"settings": "free Tub114-cys in plasma after DX126-262 30 mg/kg single i.v."}}, "note": "Like-named read-outs stand apart in the source and are kept apart here.", "data": [{"compound": "CC[C@@]1(O)C(=O)OCc2c1cc1n(c2=O)Cc2c-1nc1cc(F)c(C)c3c1c2[C@@H](NC(=O)CO)CC3", "note": "[Dxd]", "values": [{"measurement": "Vss", "setting": "[1]; Dxd 1 mg/kg, ref Nagai et al., 2019", "value": 832, "unit": "mL/kg"}]}, {"compound": "ado-trastuzumab emtansine [Kadcyla]", "values": [{"measurement": "Toxicity to HER2-negative cell line MDA-MB-468", "setting": "[2]", "value": "some inhibitory effects"}, {"measurement": "Endocytosis Efficiency", "setting": "[3]; BT-474, incubation time 0 min", "value": 10.8, "unit": "%"}, {"measurement": "Endocytosis Efficiency", "setting": "[3]; BT-474, incubation time 10 min", "value": 27.3, "unit": "%"}, {"measurement": "Endocytosis Efficiency", "setting": "[3]; BT-474, incubation time 30 min", "value": 34.2, "unit": "%"}, {"measurement": "Endocytosis Efficiency", "setting": "[3]; BT-474, incubation time 90 min", "value": 38.6, "unit": "%"}, {"measurement": "Endocytosis Efficiency", "setting": "[3]; BT-474, incubation time 120 min", "value": 43.8, "unit": "%"}, {"measurement": "Endocytosis Efficiency", "setting": "[4]; SK-BR-3, incubation time 0 min", "value": 9.3, "unit": "%"}, {"measurement": "Endocytosis Efficiency", "setting": "[4]; SK-BR-3, incubation time 10 min", "value": 11.8, "unit": "%"}, {"measurement": "Endocytosis Efficiency", "setting": "[4]; SK-BR-3, incubation time 30 min", "value": 17.4, "unit": "%"}, {"measurement": "Endocytosis Efficiency", "setting": "[4]; SK-BR-3, incubation time 90 min", "value": 31.6, "unit": "%"}, {"measurement": "Endocytosis Efficiency", "setting": "[4]; SK-BR-3, incubation time 120 min", "value": 33.4, "unit": "%"}]}, {"compound": "CCC(C)C(NC(=O)C(C)(C)N(C)C)C(=O)N(C)C(CC(OC(C)=O)c1nc(C(=O)NC(Cc2ccc(O)c(NC(=O)CCCNC(=O)C(CCCCNC(=O)COCCOCCOCCOCCOCCOCCOCCOCCOCCOC)NC(=O)CCCN3C(=O)CC(SCC(N)C(=O)O)C3=O)c2)CC(C)C(=O)O)cs1)C(C)C", "note": "(centres unmarked) [Tub114-cys]", "values": [{"measurement": "Killing of tumor cells by free payload", "setting": "tumor cells", "value": "neither Tub114 nor Tub114-cys could kill tumor cells at the same concentration as the corresponding ADC"}, {"measurement": "Antitumor effect", "setting": "[5]", "value": "no antitumor effect"}, {"measurement": "Cmax of free payload", "setting": "[6]; Tub114-cys after 3 mg/kg DX126-262", "value": 5.5, "unit": "nM"}, {"measurement": "Cmax of free payload", "setting": "[6]; Tub114-cys after 10 mg/kg DX126-262", "value": 14.6, "unit": "nM"}, {"measurement": "Cmax of free payload", "setting": "[6]; Tub114-cys after 30 mg/kg DX126-262", "value": 31.7, "unit": "nM"}, {"measurement": "AUCinf", "setting": "[6]; [8]", "value": "4,501.5 ± 657.9 ng•hr/mL"}, {"measurement": "CL", "setting": "[6]; [8]", "value": "226.3 ± 34.7", "unit": "mL/h/kg"}, {"measurement": "Cmax", "setting": "[6]; [8]", "value": "4,155.8 ± 464.2 ng/mL"}, {"measurement": "T1/2", "setting": "[6]; [8]", "value": "1.2 ± 0.2", "unit": "h"}, {"measurement": "Vss", "setting": "[6]; [8]", "value": "253.8 ± 30.7", "unit": "mL/kg"}, {"measurement": "AUC inf", "setting": "[6]; [9]", "value": "519.2 ± 381.9", "unit": "ng·h/mL"}, {"measurement": "Cmax", "setting": "[6]; [9]", "value": "9.5 ± 1.1", "unit": "ng/mL"}, {"measurement": "T1/2", "setting": "[6]; [9]", "value": "51.4 ± 47.1", "unit": "h"}, {"measurement": "AUC inf", "setting": "[6]; [10]", "value": "966.4 ± 115.4", "unit": "ng·h/mL"}, {"measurement": "Cmax", "setting": "[6]; [10]", "value": "25.0 ± 5.2", "unit": "ng/mL"}, {"measurement": "T1/2", "setting": "[6]; [10]", "value": "26.6 ± 6.6", "unit": "h"}, {"measurement": "AUC inf", "setting": "[6]; [11]", "value": "2,505.7 ± 419.6 ng•hr/mL"}, {"measurement": "Cmax", "setting": "[6]; [11]", "value": "54.3 ± 5.7", "unit": "ng/mL"}, {"measurement": "T1/2", "setting": "[6]; [11]", "value": "28.1 ± 2.7", "unit": "h"}]}, {"compound": "COc1cc2cc(c1Cl)N(C)C(=O)C[C@H](OC(=O)[C@H](C)N(C)C(=O)CCS)[C@]1(C)O[C@H]1[C@H](C)[C@@H]1C[C@@](O)(NC(=O)O1)[C@H](OC)/C=C/C=C(\\C)C2", "note": "[DM1]", "values": [{"measurement": "Vss", "setting": "[7]", "value": "> 668", "unit": "mL/kg"}, {"measurement": "Cmax of free payload", "setting": "[1]; DM1 after 3 mg/kg Kadcyla", "value": 8.0, "unit": "nM"}, {"measurement": "Cmax of free payload", "setting": "[1]; DM1 after 10 mg/kg Kadcyla", "value": 28.2, "unit": "nM"}, {"measurement": "Cmax of free payload", "setting": "[1]; DM1 after 30 mg/kg Kadcyla", "value": 90.2, "unit": "nM"}]}]}
